Read-outs that look alike come from different tables or passages of the source.
Tests used:
c-kit = biological target: T1, c-kit (Homo sapiens, UniProt P10721); test: Inhibitory activity against c-kit autophosphorylation (MO7e cells, h-SCF); assay type: cell-based; details: for IC50: MO7e cells, read-out: c-kit IC50; for inhibition at 1 µM: Mo7e, at 1000 nM
T1 construct: MO7e (human megakaryocytic leukemia cell line) which had been arrested for 20 hr; endogenous in cells; host or cells: MO7e human megakaryocytic leukemia cell line
T1 sequence (P10721 26-976): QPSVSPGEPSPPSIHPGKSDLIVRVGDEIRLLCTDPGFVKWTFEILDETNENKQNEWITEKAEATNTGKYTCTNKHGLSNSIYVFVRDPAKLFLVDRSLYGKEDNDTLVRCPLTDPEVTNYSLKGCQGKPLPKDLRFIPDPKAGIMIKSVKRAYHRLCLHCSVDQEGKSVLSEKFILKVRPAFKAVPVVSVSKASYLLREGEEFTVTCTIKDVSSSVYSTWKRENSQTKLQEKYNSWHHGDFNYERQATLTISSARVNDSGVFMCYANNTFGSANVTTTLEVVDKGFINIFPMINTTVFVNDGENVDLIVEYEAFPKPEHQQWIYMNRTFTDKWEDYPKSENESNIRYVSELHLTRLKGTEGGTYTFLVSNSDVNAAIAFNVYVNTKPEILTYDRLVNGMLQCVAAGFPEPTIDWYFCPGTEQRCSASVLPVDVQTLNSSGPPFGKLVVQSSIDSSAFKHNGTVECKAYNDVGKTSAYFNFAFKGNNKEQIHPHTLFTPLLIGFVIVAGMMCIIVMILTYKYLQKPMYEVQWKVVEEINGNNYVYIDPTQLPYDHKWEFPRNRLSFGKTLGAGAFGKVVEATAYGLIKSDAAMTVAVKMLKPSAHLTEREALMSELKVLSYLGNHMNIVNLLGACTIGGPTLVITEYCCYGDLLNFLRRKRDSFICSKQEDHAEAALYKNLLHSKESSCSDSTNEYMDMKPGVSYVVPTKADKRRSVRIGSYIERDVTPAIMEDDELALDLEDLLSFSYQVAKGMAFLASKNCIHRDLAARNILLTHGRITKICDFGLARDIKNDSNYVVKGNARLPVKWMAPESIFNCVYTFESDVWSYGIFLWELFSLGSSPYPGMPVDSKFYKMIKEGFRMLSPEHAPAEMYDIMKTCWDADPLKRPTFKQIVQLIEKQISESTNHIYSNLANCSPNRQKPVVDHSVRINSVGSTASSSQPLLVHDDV
In short: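 MO7e cells, arrested for 20 hr, were pretreated with test compound in DMSO for 1 hr and then stimulated with 50 ng/ml h-SCF for 5 min before lysis. Lysates were captured on immobilized anti-phosphotyrosine PY-20, probed with anti-c-kit antibody and HRP anti-rabbit IgG, and read colorimetrically at 450 nm.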

PDGF-Ra = biological target: T2, PDGF-Ra (Homo sapiens, UniProt P16234); test: Inhibitory activity against PDGF-Ra phosphorylation by PDGF-AA stimulation using G292; assay type: cell-based; details: for IC50: > means inhibition at indicated concentration not more than 50%, < and << not less than 50%, read-out: PDGF (E) IC50; for inhibition at 0.1 µM: G292, at 100 nM, read-out: PDGF (E) inhibition (%) at 100 nM
T2 construct: host or cells: G-292 human osteosarcoma cells
T2 sequence (P16234 24-1089): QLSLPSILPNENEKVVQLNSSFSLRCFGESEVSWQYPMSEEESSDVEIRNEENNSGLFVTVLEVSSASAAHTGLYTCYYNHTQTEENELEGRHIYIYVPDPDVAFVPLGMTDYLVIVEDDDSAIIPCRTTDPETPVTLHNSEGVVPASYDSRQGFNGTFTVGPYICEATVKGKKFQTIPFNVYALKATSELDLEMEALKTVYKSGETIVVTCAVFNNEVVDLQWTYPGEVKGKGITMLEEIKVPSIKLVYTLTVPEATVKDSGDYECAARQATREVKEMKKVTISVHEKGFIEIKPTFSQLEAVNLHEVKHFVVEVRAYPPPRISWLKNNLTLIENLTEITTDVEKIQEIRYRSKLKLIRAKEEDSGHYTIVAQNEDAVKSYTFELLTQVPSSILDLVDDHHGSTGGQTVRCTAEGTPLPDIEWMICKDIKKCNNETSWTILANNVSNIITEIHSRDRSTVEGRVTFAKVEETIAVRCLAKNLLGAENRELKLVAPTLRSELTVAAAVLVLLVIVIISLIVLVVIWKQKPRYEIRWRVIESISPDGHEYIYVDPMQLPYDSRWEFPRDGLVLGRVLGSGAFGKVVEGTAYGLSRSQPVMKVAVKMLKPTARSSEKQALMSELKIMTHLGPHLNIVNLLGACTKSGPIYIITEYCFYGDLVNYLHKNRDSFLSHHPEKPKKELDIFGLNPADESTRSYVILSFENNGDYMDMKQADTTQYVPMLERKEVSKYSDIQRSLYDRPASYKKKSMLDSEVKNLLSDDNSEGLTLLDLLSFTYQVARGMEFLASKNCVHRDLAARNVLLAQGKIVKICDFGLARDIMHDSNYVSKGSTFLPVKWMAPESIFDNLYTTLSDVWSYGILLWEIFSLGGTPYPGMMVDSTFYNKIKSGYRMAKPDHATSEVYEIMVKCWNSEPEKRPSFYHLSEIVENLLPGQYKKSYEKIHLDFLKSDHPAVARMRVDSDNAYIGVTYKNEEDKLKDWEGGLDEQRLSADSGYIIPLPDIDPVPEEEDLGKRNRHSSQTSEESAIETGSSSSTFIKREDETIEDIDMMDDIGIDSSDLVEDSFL
In short: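 G-292 human osteosarcoma cells, serum-starved overnight in 0.1% FBS, were pretreated with compound in DMSO for 1 hr at 37 °C, then stimulated with 50 ng/ml PDGF-AA for 5 min. Lysates were captured on anti-phosphotyrosine PY-20 plates and probed with anti-PDGF-Ra plus HRP secondary; absorbance read at 450 nm.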

[1] = figure within parentheses in −( ) or >1000( )
[2] = figure within parentheses in >100( )
[3] = figure in parentheses in >100( )

## COc1cc2nccc(Oc3ccc(NC(=S)NC(=O)Cc4cccs4)cc3Cl)c2cc1OC [Example 701, N-{3-Chloro-4-[(6,7-dimethoxy-4-quinolyl)oxy]phenyl}-N′-[2-(2-thienyl)acetyl]thiourea]
c-kit; 50 ng/ml h-SCF
  IC50: 0.459 µM
PDGF-Ra
  IC50: < 0.01 µM

## COc1cc2nccc(Oc3ccc(NC(=O)Oc4ccc(-c5ccccc5)cc4)c(C)c3C)c2cc1OC [Example 296, 4-Phenylphenyl N-{4-[(6,7-dimethoxy-4-quinolyl)oxy]-2,3-dimethylphenyl}carbamate]
c-kit; h-SCF 50 ng/ml
  IC50: 0.109 µM
PDGF-Ra; Pharmacological Test Example 1
  IC50: 0.061 µM

## COc1cc2nccc(Oc3ccc(NC(=S)NC(=O)C4CCCCC4)cc3Cl)c2cc1OC [Example 1179, N-{3-Chloro-4-[(6,7-dimethoxy-4-quinolyl)oxy]phenyl}-N′-cyclohexylcarbonylthiourea]
c-kit; h-SCF stimulation
  IC50: 0.327 µM
PDGF-Ra
  IC50: 0.014 µM

## CCN(CCNC(=O)Nc1ccc(Oc2ccnc3cc(OC)c(OC)cc23)cc1OC)c1cccc(C)c1 [Example 670, N-{4-[(6,7-Dimethoxy-4-quinolyl)oxy]-2-methoxyphenyl}-N′-[2-(ethyl-3-methylanilino)ethyl]urea]
c-kit; 50 ng/ml h-SCF
  IC50: 0.082 µM
PDGF-Ra
  IC50: 0.015 µM

## CCCCN(CCCC)CCCNC(=S)Nc1ccc(Oc2ccnc3cc(OC)c(OC)cc23)c(C)c1C [Example 547, N-{4-[(6,7-Dimethoxy-4-quinolyl)oxy]-2,3-dimethylphenyl}-N′-(3-dibutylaminopropyl)thiourea]
c-kit; [1]
  inhibition at 1 µM: 41%
PDGF-Ra
  IC50: > 0.1 µM
PDGF-Ra; [2]
  inhibition at 0.1 µM: 33%

## COc1cc2ncnc(Oc3ccc(NC(=O)N4CCN(Cc5ccccc5)CC4)cc3)c2cc1OC [Example 690, N1-{4-[(6,7-Dimethoxy-4-quinazolinyl)oxy]phenyl}-4-benzyl-1-piperazinecarboxamide]
c-kit; [1]
  inhibition at 1 µM: 11%
PDGF-Ra
  IC50: > 0.1 µM
PDGF-Ra; [2]
  inhibition at 0.1 µM: 10%

## COc1cccc(COC(=O)Nc2cc(C)c(Oc3ccnc4cc(OC)c(OC)cc34)cc2C)c1 [Example 240, 3-Methoxybenzyl N-{4-[(6,7-dimethoxy-4-quinolyl)oxy]-2,5-dimethylphenyl}carbamate]
c-kit; h-SCF 50 ng/ml
  IC50: 0.248 µM
PDGF-Ra; Pharmacological Test Example 1
  IC50: 0.017 µM

## COc1cc2nccc(Oc3ccc(NC(=O)OC(C)c4cccc(Br)c4)cc3)c2cc1OC (stereo not shown) [Example 117, 1-(3-Bromophenyl)ethyl N-{4-[(6,7-dimethoxy-4-quinolyl)oxy]phenyl}carbamate]
c-kit; h-SCF 50 ng/ml
  IC50: 0.759 µM
PDGF-Ra; Pharmacological Test Example 1
  IC50: 0.026 µM

## COc1cc2nccc(Oc3ccc(NC(=O)OCc4ccc(C)cc4)c(C)c3C)c2cc1OC [Example 234, 4-Methylbenzyl N-{4-[(6,7-dimethoxy-4-quinolyl)oxy]-2,3-dimethylphenyl}carbamate]
c-kit; h-SCF 50 ng/ml
  IC50: 0.046 µM
PDGF-Ra; Pharmacological Test Example 1
  IC50: 0.01 µM

## CCCCC(=O)NC(=S)Nc1ccc(Oc2ncnc3cc(OC)c(OC)cc23)cc1 [Example 720, N-{4-[(6,7-Dimethoxy-4-quinazolinyl)oxy]phenyl}-N′-pentanoylthiourea]
c-kit; 50 ng/ml h-SCF
  IC50: 0.03 µM
PDGF-Ra
  IC50: 0.042 µM

## COc1cc2nccc(Oc3ccc(NC(=S)NC(=O)c4ccc(Cl)s4)c(C)c3)c2cc1OC [Example 694, N-[(5-Chloro-2-thienyl)carbonyl]-N′-{4[(6,7-dimethoxy-4-quinolyl)oxy]-2-methylphenyl}thiourea]
c-kit; [1]
  inhibition at 1 µM: 37%
PDGF-Ra
  IC50: > 0.1 µM
PDGF-Ra; [2]
  inhibition at 0.1 µM: 12%

## CCN(CCNC(=O)Nc1ccc(Oc2ncnc3cc(OC)c(OC)cc23)cc1)c1cccc(C)c1 [Example 664, N-{4-[(6,7-Dimethoxy-4-quinazolinyl)oxy]phenyl}-N′-[2-(ethyl-3-methylanilino)ethyl]urea]
c-kit; 50 ng/ml h-SCF
  IC50: 0.097 µM
PDGF-Ra
  IC50: < 0.01 µM

## COc1cc2nccc(Oc3cc(C)c(NC(=O)OCc4cccc(C)c4)cc3C)c2cc1OC [Example 254, 3-Methylbenzyl N-{4-[(6,7-dimethoxy-4-quinolyl)oxy]-2,5-dimethylphenyl}carbamate]
c-kit; h-SCF 50 ng/ml
  IC50: 0.396 µM
PDGF-Ra; [3]
  inhibition at 0.1 µM: 27%
PDGF-Ra; Pharmacological Test Example 1
  IC50: > 0.1 µM

## CCCC(CC)OC(=O)Nc1ccc(Oc2ccnc3cc(OC)c(OC)cc23)cc1 (stereo not shown) [Example 258, 1-Ethylbutyl N-{4-[(6,7-dimethoxy-4-quinolyl)oxy]phenyl}carbamate]
c-kit; h-SCF 50 ng/ml
  IC50: 0.178 µM
PDGF-Ra; Pharmacological Test Example 1
  IC50: 0.003 µM

## COc1cc2nccc(Oc3ccc(NCCOc4cccc(C)c4)cc3C)c2cc1OC [Example 878, N-{4-[(6,7-Dimethoxy-4-quinolyl)oxy]-3-methylphenyl}-N-[2-(3-methylphenoxy)ethyl]amine]
c-kit; h-SCF stimulation
  IC50: 0.065 µM
PDGF-Ra
  IC50: 0.019 µM

## CCCC(CCN1CCN(C)CC1)OC(=O)Nc1ccc(Oc2ncnc3cc(OC)c(OC)cc23)cc1 (stereo not shown) [Example 452, 1-[2-(4-Methylpiperazino)ethyl]butyl N-{4-[(6,7-dimethoxy-4-quinazolinyl)oxy]phenyl}carbamate]
c-kit; [1]
  inhibition at 1 µM: 37%
PDGF-Ra
  IC50: > 0.1 µM
PDGF-Ra; [2]
  inhibition at 0.1 µM: 31%

## COc1cc2nccc(Oc3ccc(NC(=S)NC(=O)CCCc4ccccc4)cc3)c2cc1OC [Example 725, N-{4-[(6,7-Dimethoxy-4-quinolyl)oxy]phenyl}-N′-(4-phenylbutanoyl)thiourea]
c-kit; 50 ng/ml h-SCF
  IC50: 0.413 µM
PDGF-Ra
  IC50: < 0.01 µM

## COc1cc2nccc(Oc3ccc(NC(=O)OCc4ccc(F)cc4)c(C)c3C)c2cc1OC [Example 9, 4-Fluorobenzyl N-{4-[(6,7-dimethoxy-4-quinolyl)oxy]-2,3-dimethylphenyl}carbamate]
c-kit; h-SCF 50 ng/ml
  IC50: 0.045 µM
PDGF-Ra; Pharmacological Test Example 1
  IC50: < 0.01 µM

## COc1cc2nccc(Oc3ccc(NC(=S)NC(=O)N4CCCC4)cc3)c2cc1OC [Example 1044, N-{4-[(6,7-Dimethoxy-4-quinolyl)oxy]phenyl}-N′-tetrahydro-1H-1-pyrrolylcarbonylthiourea]
c-kit; h-SCF stimulation
  IC50: 0.136 µM
PDGF-Ra
  IC50: < 0.01 µM

## COc1cc2ncnc(Oc3ccc(NC(=O)OCCC4CCCCC4)cc3)c2cc1OC [Example 356, 2-Cyclohexylethyl N-{4-[(6,7-dimethoxy-4-quinazolinyl)oxy]phenyl}carbamate]
c-kit; h-SCF 50 ng/ml
  IC50: 0.066 µM
PDGF-Ra; Pharmacological Test Example 1
  IC50: < 0.01 µM

## CCCCC(CCCC)OC(=O)Nc1cc(C)c(Oc2ccnc3cc(OC)c(OC)cc23)cc1C [Example 369, 1-Butylpentyl N-{4-[(6,7-dimethoxy-4-quinolyl)oxy]-2,5-dimethylphenyl}carbamate]
c-kit; figure in parentheses in −( )
  inhibition at 1 µM: 36%
PDGF-Ra; Pharmacological Test Example 1
  IC50: > 0.1 µM

## COc1cc2nccc(Oc3ccc(NC(=O)OC4CCCC4)c(C)c3C)c2cc1OC [Example 365, Cyclopentyl N-{4-[(6,7-dimethoxy-4-quinolyl)oxy]-2,3-dimethylphenyl}carbamate]
c-kit; h-SCF 50 ng/ml
  IC50: 0.047 µM
PDGF-Ra; Pharmacological Test Example 1
  IC50: < 0.01 µM

## COc1cc2ncnc(Oc3ccc(NC(=S)NC(=O)CCc4ccccc4C)cc3)c2cc1OC [Example 1133, N-{4-[(6,7-Dimethoxy-4-quinazolinyl)oxy]phenyl}-N′-[3-(2-methylphenyl)propanoyl]thiourea]
c-kit; h-SCF stimulation
  IC50: 0.042 µM
PDGF-Ra
  IC50: < 0.01 µM

## COc1cc(Oc2ncnc3cc(OC)c(OC)cc23)ccc1NC(=O)NC1CCN(Cc2ccccc2)CC1 [Example 641, N-(1-Benzyl-4-piperidyl)-N′-{4-[(6,7-dimethoxy-4-quinazolinyl)oxy]-2-methoxyphenyl}urea]
c-kit; 50 ng/ml h-SCF
  IC50: 0.293 µM
PDGF-Ra
  IC50: 0.028 µM

## COc1cc2ncnc(Oc3ccc(NC(=S)NC(=O)CCC4CCCC4)cc3)c2cc1OC [Example 1132, N-(3-Cyclopentylpropanoyl)-N′-{4-[(6,7-dimethoxy-4-quinazolinyl)oxy]phenyl}thiourea]
c-kit; h-SCF stimulation
  IC50: 0.146 µM
PDGF-Ra
  IC50: < 0.01 µM

## COc1cc2nccc(Oc3cc(C)c(NC(=O)OCCCOc4ccccc4OC)cc3C)c2cc1OC [Example 159, 3-(2-Methoxyphenoxy)propyl N-{4-[(6,7-dimethoxy-4-quinolyl)oxy]-2,5-dimethylphenyl}carbamate]
c-kit; h-SCF 50 ng/ml
  IC50: 0.147 µM
PDGF-Ra; Pharmacological Test Example 1
  IC50: 0.052 µM

## COc1cc2ncnc(Oc3ccc(NC(=O)OC4CCCCC4)c(Cl)c3)c2cc1OC [Example 313]
c-kit; h-SCF 50 ng/ml
  IC50: 0.33 µM
PDGF-Ra; Pharmacological Test Example 1
  IC50: < 0.01 µM

## COc1cc2nccc(Oc3ccc(NC(=O)OC4CCCN(C)C4)cc3)c2cc1OC (stereo not shown) [Example 462, 1-Methyl-3-piperidyl N-{4-[(6,7-dimethoxy-4-quinolyl)oxy]phenyl}carbamate]
c-kit; 50 ng/ml h-SCF
  IC50: 0.575 µM
PDGF-Ra
  IC50: 0.052 µM

## CCCCCCCCc1ccc(C(=O)NC(=S)Nc2ccc(Oc3ccnc4cc(OC)c(OC)cc34)cc2)cc1 [Example 1128, N-{4-[(6,7-Dimethoxy-4-quinolyl)oxy]phenyl}-N′-(4-octylbenzoyl)thiourea]
c-kit; figure in parentheses in −( )
  inhibition at 1 µM: 17%
PDGF-Ra
  IC50: > 0.1 µM
PDGF-Ra; [3]
  inhibition at 0.1 µM: 47%

## CCCCCCOC(=O)Nc1ccc(Oc2ncnc3cc(OC)c(OC)cc23)cc1 [Example 335, Hexyl N-{4-[(6,7-dimethoxy-4-quinazolinyl)oxy]phenyl}carbamate]
c-kit; h-SCF 50 ng/ml
  IC50: < 0.03 µM
PDGF-Ra; Pharmacological Test Example 1
  IC50: < 0.01 µM

## COc1cc2nccc(Oc3ccc(NC(=O)NCCN(C)C)c(C)c3C)c2cc1OC [Example 626, N-{4-[(6,7-Dimethoxy-4-quinolyl)oxy]-2,3-dimethylphenyl}-N′-[2-(dimethylamino)ethyl]urea]
c-kit; 50 ng/ml h-SCF
  IC50: 0.339 µM
PDGF-Ra
  IC50: 0.049 µM

## COc1cc2nccc(Oc3ccc(NC(=S)NC(=O)c4ccc(C)cc4C)cc3)c2cc1OC [Example 1003, N-{4-[(6,7-Dimethoxy-4-quinolyl)oxy]phenyl}-N′-(2,4-dimethylbenzoyl)thiourea]
c-kit; h-SCF stimulation
  IC50: 0.628 µM
PDGF-Ra
  IC50: 0.024 µM
